Data: ChEMBL document CHEMBL5346920, “Development of the "hidden" multi-target-directed ligands by AChE/BuChE for the treatment of Alzheimer's disease” (Eur J Med Chem, 2023)
Activity calls are given as the source filed them. No cut-off for these calls is given here.

Legend:
PC-12 = assay: Cytotoxicity against rat PC-12 cells assessed as cell viability at 40 uM by CCK-8 assay; format: toxicity, cell-based; details: pc-12, 40 µM
[1] = biological target: T1, Amine oxidase [flavin-containing] A (Homo sapiens, UniProt P21397); assay: Inhibition of human recombinant MAO-A expressed in baculovirus-infected BTI cells using kynuramine as substrate incubated for 30 mins by fluorescence based analysis
T1 sequence (P21397 whole entry): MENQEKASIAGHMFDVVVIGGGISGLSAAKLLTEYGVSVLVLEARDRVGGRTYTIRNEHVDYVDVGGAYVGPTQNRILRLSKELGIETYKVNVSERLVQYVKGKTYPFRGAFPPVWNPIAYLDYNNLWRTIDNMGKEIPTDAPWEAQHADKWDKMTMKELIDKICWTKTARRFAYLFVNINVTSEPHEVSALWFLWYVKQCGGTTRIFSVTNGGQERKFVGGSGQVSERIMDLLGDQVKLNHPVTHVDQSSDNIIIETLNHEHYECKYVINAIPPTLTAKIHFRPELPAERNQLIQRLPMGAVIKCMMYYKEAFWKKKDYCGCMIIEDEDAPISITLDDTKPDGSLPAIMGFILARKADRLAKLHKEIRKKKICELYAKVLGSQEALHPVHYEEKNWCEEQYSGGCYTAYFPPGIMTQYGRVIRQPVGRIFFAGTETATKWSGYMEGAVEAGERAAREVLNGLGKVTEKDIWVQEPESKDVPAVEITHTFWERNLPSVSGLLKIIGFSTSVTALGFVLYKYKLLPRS

Danio rerio [2] = organism: Danio rerio; assay: Antialzheimer activity against AlCl3-induced Alzheimer's disease zebra fish model assessed as distance velocity at 0.0049 ug/ml treated for 24 hrs and measured after 24 hrs under light environment (reference value: 7.7 cm/min); format: functional; details: dose 0.0049 µg/ml; time 48 hrs
Danio rerio [3] = organism: Danio rerio; assay: Antialzheimer activity against AlCl3-induced Alzheimer's disease zebra fish model assessed as total distance moved at 0.0049 ug/ml treated for 24 hrs and measured after 24 hrs under dark environment (reference value: 312 cm); format: functional; details: dose 0.0049 µg/ml; time 48 hrs
[4] = Stability of the compound in rat liver microsomes assessed as parent compound remaining at 10 ug/ml measured after 60 mins by UPLC-MS/MS analysis; format: ADME, Microsome; details: at 10 µg/mL, read-out: Stability
Danio rerio [5] = organism: Danio rerio; assay: Neuroprotective activity against AlCl3-induced Alzheimer's disease zebra fish model assessed as distance velocity at 0.078 ug/ml treated for 24 hrs and measured after 24 hrs under alternating light dark stimuli conditions (reference value: 9 cm/min); format: functional; details: dose 0.078 µg/ml; time 48 hrs
Danio rerio [6] = organism: Danio rerio; assay: Antialzheimer activity against AlCl3-induced Alzheimer's disease zebra fish model assessed as total distance moved at 0.078 ug/ml treated for 24 hrs and measured after 24 hrs under light environment (reference value: 230 cm); format: functional; details: dose 0.078 µg/ml; time 48 hrs
Acetylcholinesterase [7] = biological target: T2, Acetylcholinesterase (Electrophorus electricus, UniProt O42275); assay: Drug metabolism assessed as electric eel AChE-mediated 3-(4-fluorophenyl)-1-(2-hydroxyphenyl)prop-2-en-1-one formation treated at 150 mmol/L with 0.001U AChE and measured after 9 mins by HPLC analysis; format: ADME; details: 0.15 h
Cholinesterase [8] = biological target: T3, Cholinesterase (Equus caballus, UniProt P81908); assay: Drug metabolism assessed as equine serum BuChE-mediated 3-(4-fluorophenyl)-1-(2-hydroxyphenyl)prop-2-en-1-one formation treated at 150 mmol/L with 0.25U BuChE and measured after 6 mins by HPLC analysis; format: ADME, cell-free; details: horse, 0.1 h
Cholinesterase [9] = biological target: T3, Cholinesterase; assay: Drug metabolism assessed as equine serum BuChE-mediated 3-(4-fluorophenyl)-1-(2-hydroxyphenyl)prop-2-en-1-one formation treated at 150 mmol/L with 0.05U BuChE and measured after 9 mins by HPLC analysis; format: ADME, cell-free; details: horse, 0.15 h
Danio rerio [10] = organism: Danio rerio; assay: Neuroprotective activity against AlCl3-induced Alzheimer's disease zebra fish model assessed as distance velocity at 0.078 ug/ml treated for 24 hrs and measured after 24 hrs under dark environment (reference value: 10.4 cm/min); format: functional; details: dose 0.078 µg/ml; time 48 hrs
Danio rerio [11] = organism: Danio rerio; assay: Neuroprotective activity against AlCl3-induced Alzheimer's disease zebra fish model assessed as distance velocity at 0.0049 ug/ml treated for 24 hrs and measured after 24 hrs under dark environment (reference value: 10.4 cm/min); format: functional; details: dose 0.0049 µg/ml; time 48 hrs
Cholinesterase [12] = biological target: T3, Cholinesterase; assay: Drug metabolism assessed as equine serum BuChE-mediated 3-(4-fluorophenyl)-1-(2-hydroxyphenyl)prop-2-en-1-one formation with 0.25U BuChE for 9 mins by HPLC analysis; format: ADME, cell-free; details: horse, 0.15 h
[13] = Acute toxicity in zebra fish assessed as maximum non-lethal dose; parameters: species or system Danio rerio; details: zebrafish
BV-2 [14] = assay: Anti-inflammatory activity against LPS-stimulated mouse BV-2 cells assessed as inhibition of LPS-induced IL-6 production incubated for 24 hrs in presence of LPS; format: functional, cell-based; details: dose 1-9 µM
Cholinesterase [15] = biological target: T3, Cholinesterase; assay: Drug metabolism assessed as equine serum BuChE-mediated 3-(4-fluorophenyl)-1-(2-hydroxyphenyl)prop-2-en-1-one formation treated at 150 mmol/L with 0.25U BuChE and measured after 6 secs by HPLC analysis; format: ADME, cell-free; details: horse, 6 s, time 6 sec
[16] = Acute toxicity in zebra fish assessed as ratio of pericardial edema to body weight at 0.15625 to 2.5 ug/ml and measured at 120 hpf by microscopic analysis; parameters: species or system Danio rerio; details: zebrafish; dose 0.15625-2.5 µg/ml
Danio rerio [17] = organism: Danio rerio; assay: Neuroprotective activity against AlCl3-induced Alzheimer's disease zebra fish model assessed as distance velocity at 0.0195 ug/ml treated for 24 hrs and measured after 24 hrs under alternating light dark stimuli conditions (reference value: 9 cm/min); format: functional; details: dose 0.0195 µg/ml; time 48 hrs
BV-2 [18] = assay: Anti-inflammatory activity against LPS-stimulated mouse BV-2 cells assessed as inhibition of LPS-induced NO production incubated for 24 hrs in presence of LPS; format: functional, cell-based; details: dose 1-9 µM
[19] = Acute toxicity in zebra fish assessed as proportion of dead zebrafish at 5 to 10 ug/ml and measured every 24 hrs upto 120 hours post fertilization; parameters: species or system Danio rerio; details: in vivo, at 5 to 10 µg/mL, dose 5-10 µg/ml, read-out: Activity
Acetylcholinesterase [20] = biological target: T2, Acetylcholinesterase; assay: Inhibition of electric eel AChE using acetylthiocholine chloride as substrate by Ellman's method
[21] = Stability of the compound in rat plasma assessed as parent compound remaining at 10 ug/ml measured after 3 hrs by UPLC-MS/MS analysis; format: ADME, cell-free; details: at 10 µg/mL, read-out: Stability
Acetylcholinesterase [22] = biological target: T2, Acetylcholinesterase; assay: Drug metabolism assessed as electric eel AChE-mediated 3-(4-fluorophenyl)-1-(2-hydroxyphenyl)prop-2-en-1-one formation treated at 150 mmol/L with 0.25U AChE and measured after 6 secs by HPLC analysis; format: ADME; details: 6 s, time 6 sec
[23] = Metal chelating activity assessed as compound-Zn2+ complex formation at 37.5 uM incubated for 30 mins in presence of ZnCl2 by UV-Vis spectrometry
Danio rerio [24] = organism: Danio rerio; assay: Neuroprotective activity against AlCl3-induced Alzheimer's disease zebra fish model assessed as inhibition of AlCl3-induced AChE activity at 0.0049 to 0.078 ug/ml treated for 24 hrs and measured after 24 hrs; format: functional, organism-based; details: dose 0.0049-0.078 µg/ml, time 48.0 hrs
[25] = Acute toxicity in zebra fish assessed as effect on liver median fluorescence intensity at 0.3125 to 1.25 ug/ml and measured at 120 hpf by microscopic analysis; parameters: species or system Danio rerio; details: zebrafish; dose 0.3125-1.25 µg/ml

T3 sequence (P81908 whole entry): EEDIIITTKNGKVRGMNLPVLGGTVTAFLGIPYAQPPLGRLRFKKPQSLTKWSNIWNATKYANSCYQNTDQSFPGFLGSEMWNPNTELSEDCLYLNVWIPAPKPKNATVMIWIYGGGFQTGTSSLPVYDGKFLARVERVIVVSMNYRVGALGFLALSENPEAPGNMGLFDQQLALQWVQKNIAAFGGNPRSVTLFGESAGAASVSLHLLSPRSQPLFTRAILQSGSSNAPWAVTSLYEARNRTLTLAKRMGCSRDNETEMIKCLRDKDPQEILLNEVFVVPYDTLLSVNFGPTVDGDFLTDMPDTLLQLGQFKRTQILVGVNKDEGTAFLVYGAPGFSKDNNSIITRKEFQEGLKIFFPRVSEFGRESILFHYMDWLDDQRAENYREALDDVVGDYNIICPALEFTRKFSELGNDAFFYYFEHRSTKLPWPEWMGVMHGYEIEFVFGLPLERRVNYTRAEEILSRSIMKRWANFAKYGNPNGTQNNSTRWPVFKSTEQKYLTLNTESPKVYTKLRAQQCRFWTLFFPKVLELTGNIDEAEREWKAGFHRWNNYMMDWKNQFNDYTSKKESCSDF
T2 sequence (O42275 whole entry): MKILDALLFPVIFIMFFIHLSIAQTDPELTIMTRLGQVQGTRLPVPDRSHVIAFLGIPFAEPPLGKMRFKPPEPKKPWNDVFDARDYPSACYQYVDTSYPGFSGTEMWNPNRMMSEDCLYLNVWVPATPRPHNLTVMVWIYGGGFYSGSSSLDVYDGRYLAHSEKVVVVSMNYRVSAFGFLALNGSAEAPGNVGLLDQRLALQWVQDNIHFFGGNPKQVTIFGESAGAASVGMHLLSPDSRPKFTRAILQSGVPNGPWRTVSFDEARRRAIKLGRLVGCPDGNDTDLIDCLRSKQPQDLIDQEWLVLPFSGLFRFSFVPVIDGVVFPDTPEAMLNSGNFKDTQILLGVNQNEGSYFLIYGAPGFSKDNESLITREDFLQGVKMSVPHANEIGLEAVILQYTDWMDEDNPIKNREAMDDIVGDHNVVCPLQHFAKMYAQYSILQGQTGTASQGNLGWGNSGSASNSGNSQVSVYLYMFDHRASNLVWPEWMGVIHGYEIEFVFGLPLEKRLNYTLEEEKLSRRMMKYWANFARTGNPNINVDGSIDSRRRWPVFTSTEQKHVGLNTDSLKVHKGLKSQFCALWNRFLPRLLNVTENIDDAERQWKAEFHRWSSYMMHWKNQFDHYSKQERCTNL

In the case of CCN(C)C(=O)Oc1ccccc1C(=O)/C=C/c1ccc(F)cc1, the Activity (PC-12) is reported as “Non-Toxic”, the IC50 [1] is reported as 38.2 µM and the Activity (Danio rerio [2]) is reported as 12.4 cm/min. The Activity (Danio rerio [3]) was 391 cm, the remaining at 1 h, 10 ug/ml [4] was 96.2% and the Activity (Danio rerio [5]) was 12.7 cm/min. The Activity (Danio rerio [6]) was 226 cm, the Drug metabolism (Acetylcholinesterase [7]) was 5.56 mmol/L and the Drug metabolism (Cholinesterase [8]) was 14.62 mmol/L. The Drug metabolism (Cholinesterase [9]) was 14.17 mmol/L, the Activity (Danio rerio [10]) was 17.9 cm/min and the Activity (Danio rerio [11]) was 13 cm/min. The Km (Cholinesterase [12]) was 113 µM, the Activity [13] was 2.5 µg/mL and the Activity (BV-2 [14]) was “Dose-Dependent Effect”. The Drug metabolism (Cholinesterase [15]) was 1.51 mmol/L, the Activity [16] was “Non-Toxic” and the Activity (Danio rerio [17]) was 15.3 cm/min. The Activity (BV-2 [18]) was “Dose-Dependent Effect”, the mortality [19] was 100% and the IC50 (Acetylcholinesterase [20]) was 5.3 µM. The remaining at 3 h, 10 ug/ml [21] was 99.3%, the Drug metabolism (Acetylcholinesterase [22]) was 1.46 mmol/L and the Activity [23] was “inactive”. The Activity (Danio rerio [24]) was “Active” and the Activity [25] was “Non-Toxic”.
